Results on six molecules are retold here after US20040191287A1, “Fumigation process for stored food grains” (priority 2003, published 2004).

For one series, the system named is human beings. The conditions noted are these: cited from earlier work.
For series [1] the following is noted: cited from earlier work.
A further series relates to Tribolium castaneum. Nature of the series: whole plant or invertebrate. The conditions noted are these: Tribolium castaneum, read-out: Mortality (%) (Mean ± SD). As for the experimental part:
(§1) Cryptolestes sp. was reared on wheat feed. S. oryzae, Cryptolestes sp. and T. castaneum cultures were maintained at 25±1° C. and 70% RH whereas R. dominica cultures were maintained at 30±1° C. and 70% RH. From the established cultures, 2-week-old adults were taken and counted into 10 cm×2.3 cm size test tubes at 50 per replicate. The mouth of the tube was closed with a cloth piece held by small rubber ring. The insects were exposed to a range of doses (10 to 100 mg/litre) of esters for 24 hours in 0.85-liter desicators at the laboratory temperature of 26±2° C. Pure grade esters including allyl acetate, butyl acetate, ethyl acetoacetate, isopropyl acetate and propyl acetate were procured from Merck India Ltd. In each desiccator a 9 cm diameter Whatman No. 1 filter circle was placed; the filter circle acted as evaporating surface for the injected liquids (esters). Required quantity of the ester was drawn from the bottles using 10, 25 or 50 micro litre liquid syringe. There were 6 replicates for each dose with equal number of replicates for untreated control. The exposure period in all cases was 24 hours. […] Insect mortality was assessed after 14 days. Corrected mortality was arrived at based on Abbott's formula (1925).

A further series deals with Sitophilus oryzae. Kind of series: whole plant or invertebrate. The conditions noted are these: Sitophilus oryzae, read-out: Mortality (%) (Mean ± SD). The procedure: as §1
The subject of another series is Rhyzopertha dominica. Kind of series: whole plant or invertebrate. The conditions noted are these: Rhyzopertha dominica, read-out: Mortality (%) (Mean ± SD). The procedure:
as §1

For the molecule `N#CC#N` [cyanogen, reference compound], the “toxicity to human beings” value in the series with human beings is reported as “highly toxic”. In addition, the Solubility in water entry in series [1] is listed as “highly water-soluble”.
The mortality is the share of the test organisms that died. `CCOC(=O)CC(C)=O` [Ethyl acetoacetate, ethyl acetoacetate]: in the series with Tribolium castaneum, the mortality at 10 µg/mL was 0.6 ± 2.6%, the mortality at 20 µg/mL was determined as 0.8 ± 1.1%, the mortality at 30 µg/mL is 0.3 ± 1.1% and the mortality at 50 µg/mL was 0.7 ± 0.8%. The mortality at 100 µg/mL in the series on Tribolium castaneum was 1.3 ± 0.8%. In the series with Sitophilus oryzae, the mortality at 10 µg/mL came to 3.1 ± 6.9%, the mortality at 20 µg/mL stood at 4.7 ± 7.1%, the mortality at 30 µg/mL stood at 5.1 ± 5.7% and the mortality at 50 µg/mL was 6.5 ± 5.5%. Moreover, the mortality at 100 µg/mL in the series with Sitophilus oryzae stood at 15.8 ± 14%. Besides, in the series on Rhyzopertha dominica, the mortality at 10 µg/mL amounted to 0%, the mortality at 20 µg/mL came to 0%, the mortality at 30 µg/mL came to 5.7 ± 10.4% and the mortality at 50 µg/mL was 8.6 ± 17.1%. In addition, in the series with Rhyzopertha dominica, the mortality at 100 µg/mL came to 0.4 ± 0.9%.
For the molecule `CCCCOC(C)=O` [Butyl acetate, butyl acetate], in the series with Tribolium castaneum, the mortality at 10 µg/mL stood at 2 ± 2.6%, the mortality at 20 µg/mL was found to be 2.1 ± 1.1%, the mortality at 30 µg/mL was determined as 0.6 ± 1.1% and the mortality at 50 µg/mL was found to be 13.9 ± 0.8%. Moreover, in the series on Tribolium castaneum, the mortality at 100 µg/mL turned out to be 96.2 ± 0.8%. In the series on Sitophilus oryzae, the mortality at 10 µg/mL amounted to 8.3 ± 12.3%, the mortality at 20 µg/mL came to 1.7 ± 2.4%, the mortality at 30 µg/mL came out at 3.2 ± 4.5% and the mortality at 50 µg/mL was found to be 67.3 ± 7.7%. In addition, the mortality at 100 µg/mL in the series on Sitophilus oryzae was determined as 100%. In addition, in the series on Rhyzopertha dominica, the mortality at 10 µg/mL turned out to be 1.6 ± 3.5%, the mortality at 20 µg/mL came out at 0%, the mortality at 30 µg/mL turned out to be 0.2 ± 0.7% and the mortality at 50 µg/mL turned out to be 20.9 ± 26.8%. In addition, the mortality at 100 µg/mL with Rhyzopertha dominica is 100%.
Regarding `O=S(=O)(F)F` [sulfuryl fluoride, reference compound], the vapour pressure in series [1] (at 25° C.) was 13,442 mm of Hg.
Regarding `CC(=O)OC(C)C` [Isopropyl acetate, isopropyl acetate], in the series on Tribolium castaneum, the mortality at 10 µg/mL was 0.3 ± 0.6%, the mortality at 20 µg/mL came to 1.3 ± 1.7%, the mortality at 30 µg/mL turned out to be 32.7 ± 44.1% and the mortality at 50 µg/mL turned out to be 66.5 ± 27.7%. For the same molecule, in the series with Tribolium castaneum, the mortality at 100 µg/mL was found to be 100%. Also, in the series with Sitophilus oryzae, the mortality at 10 µg/mL is 5.5 ± 6.9%, the mortality at 20 µg/mL amounted to 2.3 ± 5.6%, the mortality at 30 µg/mL stood at 3.7 ± 7.56% and the mortality at 50 µg/mL was 47.1 ± 31.2%. The mortality at 100 µg/mL in the series on Sitophilus oryzae turned out to be 100%. Moreover, in the series on Rhyzopertha dominica, the mortality at 10 µg/mL is 4.4 ± 6.9%, the mortality at 20 µg/mL was 8.9 ± 10.7%, the mortality at 30 µg/mL is 6.1 ± 6.7% and the mortality at 50 µg/mL turned out to be 39.2 ± 8.2%. Moreover, the mortality at 100 µg/mL in the series with Rhyzopertha dominica worked out at 100%.
For `CCCOC(C)=O` [Propyl acetate, propyl acetate], in the series with Tribolium castaneum, the mortality at 10 µg/mL is 0.9%, the mortality at 20 µg/mL was 0.9%, the mortality at 30 µg/mL worked out at 12.6 ± 21.2% and the mortality at 50 µg/mL came out at 83.2 ± 26.3%. Besides, the mortality at 100 µg/mL in the series on Tribolium castaneum is 100%. Also, in the series with Sitophilus oryzae, the mortality at 10 µg/mL was 2.4 ± 3.8%, the mortality at 20 µg/mL stood at 0.5 ± 1.3%, the mortality at 30 µg/mL came to 14.2 ± 8.1% and the mortality at 50 µg/mL amounted to 74.3 ± 20.2%. In the series with Sitophilus oryzae, the mortality at 100 µg/mL was found to be 100%. Also, in the series on Rhyzopertha dominica, the mortality at 10 µg/mL turned out to be 2 ± 4%, the mortality at 20 µg/mL stood at 7.3 ± 10%, the mortality at 30 µg/mL was 5.3 ± 10.6% and the mortality at 50 µg/mL was 65.4 ± 40%. In addition, the mortality at 100 µg/mL in the series on Rhyzopertha dominica is 100%.
